Assay [1] relates to Swiss Webster mice. Particulars: mouse, in vivo, sc.
Assay [2] concerns Swiss Webster mice. In words: METH-induced locomotor activity assay in vaccinated mice. It is filed as in vivo. Particulars: Example 4; vaccinated mice challenged with METH. The procedure: On day 42, vaccinated mice were assessed in a locomotion assay by acclimating them for 1 h in a plastic cage (10.5 in.×19 in.×8 in.) with clear ventilated acrylic top. Mice were then quickly removed and injected with saline or 0.5, 1, 2, or 4 mg/kg METH before being returned to their cages; cages were wiped down with dry paper towels to remove excess debris while mice were being injected. The mice were then returned to the cage to be recorded and tracked by overhead camera using ANY-Maze video tracking software (Stoelting Co., Wood Dale, Ill.). Sessions were run during the middle of the dark cycle in a 4.6×4.6 m^2 room with a single 30 W upward-directed light source, and then repeated on mice after a two-day washout period until all mice received all MA doses. Distance traveled (m) and time spent immobile (s; 80% pixel consistency for at least 5 s threshold) were measured and analyzed via Prism 6 software, using a two-way repeated-measures ANOVA with Bonferroni posthoc corrected comparisons. Significance was set at a=0.05 and data is represented as mean±SEM.
The mice were monitored for swelling, redness or formation of granulomas at the injection site. The mice were bled on days 21 and 42. The anti-METH IgG antibody titers were determined by ELISA. On day 45, mice were given a 2 mg/kg dose of METH and their locomotor activity was monitored.

The test system of assay [3] is Swiss Webster mice. In kind it is in vivo. Particulars: Example 4; hapten conjugated to TT, 75 μg with 50 μg CpG + 750 μg Alhydrogel/alum, s.c. days 0, 14, 28.

TT: tetanus toxoid scaffold protein: the immune response result with Swiss Webster mice [1] was “potent immune responses”.

Regarding `CN[C@@H](CCC(=O)NCCCCCCC(=O)O)Cc1ccccc1` [I-66], the METH-induced locomotor activity entry in the assay with Swiss Webster mice [2] was “worked as well as, and possibly better than, MH-6”. Also, the “anti-METH antibody titers (ELISA)” value in the assay with Swiss Webster mice [3] is “at least comparable to, and possibly greater than, the MH-6 hapten”.

For the origin of these results see US11739054B2 (priority 2017, dated 2023).
